Laboratory results taken from patent US20050124660A1, “Novel medical uses of compounds showing CB1-antagonistic activity and combination treatment involving said compounds” (priority 2003, published 2005).
Where two headings read alike, the source gives them in different places. Each block holds one compound with its values, some of them ahead of it.

Tests used:
[1] = in vivo; cited from earlier work
[2] = cited from earlier work
[3] = cited from earlier work; remark: listed apart in the source
DTH response = conditions: mice, 0.781-50 mg/kg (i.p.) or 0.5 mg/kg (per os); cited from earlier work
[4] = system: carragheenin-induced swelling; conditions: mice; cited from earlier work
[5] = biological target: T1, human cannabinoid CB1 receptors (Homo sapiens, UniProt P21554); assay: In vitro CB1 antagonism, functional studies in CHO cells expressing human CB1 receptor; assay type: cell-based
T1 construct: expressed in transfected cells
Procedure: The cannabinoid CB1 antagonistic activity of compounds of the formulas (I), (II), III), (IV) or (V) is also described in the WO 03/026647, WO 03/027076, WO 03/026648 or WO 03/078413, and was determined by functional studies using CHO cells in which human cannabinoid CB1 receptors are stably expressed. Adenylyl cyclase was stimulated using forskolin and measured by quantifying the amount of accumulated cyclic AMP. Concomitant activation of CB1 receptors by CB1 receptor agonists (e.g. CP-55,940 or (R)-WIN-55,212-2) can attenuate the forskolin-induced accumulation of cAMP in a concentration-dependent manner. This CB1 receptor-mediated response can be antagonized by CB1 receptor antagonists such as the compounds used in the present invention.
The cannabinoid CB1 receptor antagonistic, agonistic or partial agonistic activity of compounds e.g. formula (V) of the invention can be also determined by functional studies using the human CB1 receptor cloned in Chinese hamster ovary (CHO) cells according to the following protocol. CHO cells were grown in a DMEM culture medium, supplemented with 10% heat-inactivated fetal calf serum. Medium was aspirated and replaced by DMEM, without fetal calf serum, but containing [^3H]-Arachidonic acid and incubated overnight in a cell culture stove (5% CO2/95% air; 37° C.; water-saturated atmosphere). During this period [^3H]-Arachidonic acid was incorporated in membrane phospholipids. On the test day, medium was aspirated and cells were washed three times using 0.5 ml phosphate-buffered saline, containing 0.2% bovine serum albumin. Stimulation of the CB1 receptor by WIN 55,212-2 led to activation of PLA2 followed by release of [^3H]-Arachidonic acid into the medium. This WIN 55,212-2-induced release was concentration-dependently antagonized by CB1 receptor antagonists.

[6] = biological target: T2, human cannabis CB1 receptor (Homo sapiens, UniProt P21554); assay: In vitro affinity for cannabinoid CB1 receptors, [3H]CP-55,940 radioligand, CHO cell membrane preparations; assay type: binding
T2 construct: expressed in transfected cells; host or cells: Chinese hamster ovary (CHO) cells, stably transfected; membrane preparation
Procedure: After incubation of a freshly prepared cell membrane preparation with the [3H]-ligand, with or without addition of compounds of the invention, separation of bound and free ligand was performed by filtration over glass fibre filters. Radioactivity on the filter was measured by liquid scintillation counting.

[7] = biological target: T3, porcine pancreatic lipase (Sus scrofa, UniProt P00591); conditions: cited from earlier work; for IC50: read-out: IC50 for inhibition of hydrolysis of triolein by porcine pancreatic lipase; for inhibitory activity, fold stronger than that of THL: porcine pancreatic lipase, relative to THL
T3 sequence (P00591 1-450): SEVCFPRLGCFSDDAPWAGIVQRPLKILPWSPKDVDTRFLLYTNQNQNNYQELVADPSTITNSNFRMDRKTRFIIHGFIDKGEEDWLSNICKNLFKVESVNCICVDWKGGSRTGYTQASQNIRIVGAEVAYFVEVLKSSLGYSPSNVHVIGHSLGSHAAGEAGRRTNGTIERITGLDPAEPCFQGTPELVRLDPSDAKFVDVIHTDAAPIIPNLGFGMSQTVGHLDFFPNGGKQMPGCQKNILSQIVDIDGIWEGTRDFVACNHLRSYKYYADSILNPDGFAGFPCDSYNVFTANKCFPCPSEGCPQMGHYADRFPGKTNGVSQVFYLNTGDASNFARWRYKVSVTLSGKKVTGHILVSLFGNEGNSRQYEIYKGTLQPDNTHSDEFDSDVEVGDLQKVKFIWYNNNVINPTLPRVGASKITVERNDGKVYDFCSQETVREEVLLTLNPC

[8] = system: bacterial and fungal lipases; conditions: cited from earlier work
plasma lipases = conditions: cited from earlier work; for IC50: read-out: IC50 for inhibition of plasma lipases
[9] = patients on atypical antipsychotics; cited from earlier work
[10] = treatment groups 60, 120 and 240 mg
[11] = Human cannabinoid-CB1 receptors, read-out: In vitro affinity pK1 value (converted)

T1 sequence (P21554 whole entry): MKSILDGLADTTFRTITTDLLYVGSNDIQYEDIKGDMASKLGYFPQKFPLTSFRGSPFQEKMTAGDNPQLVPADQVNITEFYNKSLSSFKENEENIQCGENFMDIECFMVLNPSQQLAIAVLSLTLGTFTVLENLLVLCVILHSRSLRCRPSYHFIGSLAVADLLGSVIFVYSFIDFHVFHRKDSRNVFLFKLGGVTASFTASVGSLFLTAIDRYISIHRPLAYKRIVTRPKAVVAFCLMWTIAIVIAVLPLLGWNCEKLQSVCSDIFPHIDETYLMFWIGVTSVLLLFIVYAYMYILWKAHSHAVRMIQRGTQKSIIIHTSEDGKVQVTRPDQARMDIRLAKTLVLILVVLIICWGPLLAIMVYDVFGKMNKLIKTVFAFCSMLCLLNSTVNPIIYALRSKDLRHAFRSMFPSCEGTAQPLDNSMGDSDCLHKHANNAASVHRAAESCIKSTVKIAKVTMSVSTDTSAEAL
T2 sequence (P21554 whole entry): as above

melting point: 238 to 240 °C (dec.)
SMILES: Cl.O=C(NN1CCCCC1)c1nc(-c2ccc(Cl)cc2)n(-c2ccc(Cl)cc2Cl)n1

melting point: 224 to 226 °C
SMILES: Cl.O=C(NN1CCOCC1)c1nc(-c2ccc(Cl)cc2Cl)n(-c2ccc(Cl)cc2)n1

melting point: 150 to 152 °C
SMILES: CC(C)(C)ONC(=O)c1nc(-c2ccc(Cl)cc2)n(-c2ccc(Cl)cc2Cl)n1

melting point: 234 to 236 °C (dec.)
SMILES: Cl.O=C(NN1CCCC1)c1nc(-c2ccc(Cl)cc2Cl)n(-c2ccc(Cl)cc2)n1

SMILES: CCCCCCCCCCCCCCCCOc1nc2ccc(C)cc2c(=O)o1 [ATL-962, 2-hexadecyloxy-6-methyl-4H-3,1-benzoxazin-4-one]
preclinical toxicity [1]: no toxicity was observed | subjects with a 3-fold or greater increase in fat excretion compared to placebo ([2]; 50 mg to 300 mg): 55% | subjects with a 7-fold or greater increase in fat excretion compared to placebo ([2]; 50 mg to 300 mg): 27% | safety and tolerability ([2]; phase Ib, healthy male volunteers): safe and well tolerated | weight compared to placebo ([3]; 60, 120 and 240 mg, obese patients): significant reduction in weight | safety and tolerability ([3]; phase IIb, obese patients): safe and generally well tolerated | HDL-cholesterol levels [3, 10]: no difference | LDL-cholesterol [3, 10]: decreased | Total cholesterol [3, 10]: decreased

SMILES: CC[C@@H](C)[C@@H](O)[C@H](C)C(=O)[C@H](C)/C=C(\C)C[C@H](C)[C@@H]1OC(=O)[C@H]1C [Ebelactone A]
development of DTH response (DTH response): enhances the development of DTH response

SMILES: CC[C@@H](C)[C@@H](O)[C@H](C)C(=O)[C@H](C)/C=C(\C)C[C@H](C)[C@@H]1OC(=O)[C@H]1CC [Ebelactone B]
carragheenin-induced swelling [4]: reduces carragheenin-induced swelling | development of DTH response (DTH response): enhances the development of DTH response

SMILES: Cl.O=C(NN1CCCC1)c1nc(-c2ccc(Cl)cc2)n(-c2ccc(Cl)cc2Cl)n1 [Example 2, 5-(4-Chlorophenyl)-1-(2,4-dichlorophenyl)-N-(pyrrolidin-1-yl)-1H-1,2,4-triazole-3-carboxamide hydrochloride]
Kb [5]: 63.1 nM | Ki [6, 11]: 251 nM | melting point: 248 to 255 °C (dec.)

SMILES: O=C(NC1CCCCC1)c1nc(-c2ccc(Cl)cc2)n(-c2ccc(Cl)cc2Cl)n1 [Example 3, 5-(4-Chlorophenyl)-N-cyclohexyl-1-(2,4-dichlorophenyl)-1H-1,2,4-triazole-3-carboxamide]
Kb [5]: 2 nM | Ki [6, 11]: 126 nM | melting point: 186 to 188 °C

SMILES: CCCCCNC(=O)c1nc(-c2ccc(Cl)cc2)n(-c2ccc(Cl)cc2Cl)n1 [Example 5, 5-(4-Chlorophenyl)-1-(2,4-dichlorophenyl)-N-(n-pentyl)-1H-1,2,4-triazole-3-carboxamide]
Ki [6]: 126 nM

melting point: 184 to 186 °C
SMILES: O=C(NN1CCOCC1)c1nc(-c2ccc(Cl)cc2)n(-c2ccc(Cl)cc2Cl)n1 [Example 6, 5-(4-Chlorophenyl)-1-(2,4-dichlorophenyl)-N-(morpholin-4-yl)-1H-1,2,4-triazole-3-carboxamide]

SMILES: O=C(NC1CCCCC1)c1nc(-c2ccc(Cl)cc2Cl)n(-c2ccc(Cl)cc2)n1 [Example 9, 1-(4-Chlorophenyl)-N-cyclohexyl-5-(2,4-dichlorophenyl)-1H-1,2,4-triazole-3-carboxamide]
Kb [5]: 6.31 nM | Ki [6, 11]: 39.8 nM

SMILES: CCCCCNC(=O)c1nc(-c2ccc(Cl)cc2Cl)n(-c2ccc(Cl)cc2)n1 [Example 11, 1-(4-Chlorophenyl)-5-(2,4-dichlorophenyl)-N-(n-pentyl)-1H-1,2,4-triazole-3-carboxamide]
Ki [6]: 501 nM

melting point: 191 to 193 °C
SMILES: O=C(NN1CCCCC1)c1nc(-c2ccccn2)n(-c2ccc(Cl)cc2Cl)n1 [Example 13, 1-(2,4-Dichlorophenyl)-5-(pyridin-2-yl)-N-(piperidin-1-yl)-1H-1,2,4-triazole-3-carboxamide]

melting point: 159 to 161 °C
SMILES: O=C(NN1CCCCC1)c1nc(-c2ccc(Cl)cc2Cl)n(-c2ccc(C(F)(F)F)cc2)n1 [Example 14, 5-(2,4-Dichlorophenyl)-N-(piperidin-1-yl)-1-(4-(trifluoromethyl)phenyl)-1H-1,2,4-triazole-3-carboxamide]

melting point: 219 °C
SMILES: O=C(NN1CCCCC1)c1nc(-c2cccnc2)n(-c2ccc(Cl)cc2Cl)n1 [Example 16, 1-(2,4-Dichlorophenyl)-N-(piperidin-1-yl)-5-(pyridin-3-yl)-1H-1,2,4-triazole-3-carboxamide]

SMILES: CCCCCCC[C@@H](C[C@@H]1OC(=O)[C@H]1CCCCCCCC(C)C)OC(=O)[C@H](C)NC=O [Panclicin A]
irreversibility of pancreatic lipase inhibition [7]: irreversibly inhibit pancreatic lipase | IC50 [7]: 2900 nM | inhibition of bacterial and fungal lipases [8]: profiles similar to those for porcine pancreatic lipase | IC50 (plasma lipases): 1000 nM | potency on plasma lipases compared with THL (plasma lipases; relative to THL): same potency as THL

SMILES: CCCCCCC[C@@H](C[C@@H]1OC(=O)[C@H]1CCCCCCCC(C)C)OC(=O)CNC=O [Panclicin C]
irreversibility of pancreatic lipase inhibition [7]: irreversibly inhibit pancreatic lipase | inhibitory activity, fold stronger than that of THL [7]: 2 fold | IC50 [7]: 620 nM | inhibition of bacterial and fungal lipases [8]: profiles similar to those for porcine pancreatic lipase | IC50 (plasma lipases): 290 nM

SMILES: CCCCCCCCCC[C@@H]1C(=O)O[C@H]1C[C@H](CCCCCCC)OC(=O)CNC=O [Panclicin D]
irreversibility of pancreatic lipase inhibition [7]: irreversibly inhibit pancreatic lipase | inhibitory activity, fold stronger than that of THL [7]: 2 fold | IC50 [7]: 660 nM | inhibition of bacterial and fungal lipases [8]: profiles similar to those for porcine pancreatic lipase | IC50 (plasma lipases): 250 nM

SMILES: CCCCCCCCCCCC[C@@H]1C(=O)O[C@H]1C[C@H](CCCCCCC)OC(=O)CNC=O [Panclicin E]
irreversibility of pancreatic lipase inhibition [7]: irreversibly inhibit pancreatic lipase | inhibitory activity, fold stronger than that of THL [7]: 2 fold | IC50 [7]: 890 nM | inhibition of bacterial and fungal lipases [8]: profiles similar to those for porcine pancreatic lipase | IC50 (plasma lipases): 150 nM

SMILES: Cc1nc2n(c(=O)c1CCN1CCC(c3noc4cc(F)ccc34)CC1)CCCC2 [Risperidone]
weight change with long-term treatment [9]: modest weight changes that are not dose related

SMILES: Cc1cc2c(s1)Nc1ccccc1N=C2N1CCN(C)CC1 [olanzapine]
weight change with long-term treatment [9]: largest weight gains

SMILES: OCCOCCN1CCN(C2=Nc3ccccc3Sc3ccccc32)CC1 [quetiapine]
weight change with long-term treatment [9]: smallest

SMILES: CCCCCCCCCCC[C@@H](C[C@@H]1OC(=O)[C@H]1CCCCCC)OC(=O)[C@H](CC(C)C)NC=O [tetrahydrolipstatin, (2S,3S,5S)-5-((S)-2-4-methylvaleryloxy)-2-heyl-3-hydroxy-hexadecanoic acid lactone]
fat excreted, average ([2]; 120 mg tid, 5 days, placebo 1.4 g/day): 5.6 (+1-3.8) g/day

SMILES: O=C1Cc2cc(CCN3CCN(c4nsc5ccccc45)CC3)c(Cl)cc2N1 [ziprasidone]
weight change with long-term treatment [9]: smallest
